Experiment [1] deals with Hs738.St/Int. cells. Kind of experiment: Fluorescence microscopy of FITC-labeled peptides. Conditions: 10 μM, 15 min. The class given is cell-based, human. How it is done:
(§1) Preferential binding of the FITC-Peptide 2 and FITC-Control peptide 2 to target and non-target cells was also validated via fluorescence microscopy. HT29 and Hs738.St/Int. cells were grown in 22 mm2 cover slips with ˜80% confluence. Blocking of non-specific binding was performed by adding PBS/0.5% BSA for 30 min. The cells were then incubated with 10 μM of FITC-Peptide 2 or FITC-Control peptide 2 either at 4 or 37° C. for 15 min followed by 1 μg/mL Hoechst dye (Sigma Aldrich, St. Louis, Mo.) along with the peptide. The cells were washed with PBS for 3 times and fixed with 4% paraformaldehyde at room temperature for 10 min. After fixation, the cells were washed again with PBS (1×) and mounted with ProLong® Gold reagent (Invitrogen, Carlsbad, Calif.) and the fluorescence images were acquired with Leica Confocal system. (Leica Microsystems GMBH, Wetzlar, 35578 Germany)
(§2) Preferential binding of the FITC-labeled candidate and control peptides to the target and non-target cells was further validated via fluorescence microscopy. HT29 and Hs738.St/Int. cells were grown on cover slips to ˜80% confluence. Blocking of non-specific binding was performed by adding PBS/0.5% BSA for 30 min. The cells were then incubated with 10 μM of 5-FITC-labeled candidate or control peptide at either 4 or 37° C. for 15 min followed by staining with 1 μg/mL Hoechst dye (Sigma Aldrich, St. Louis, Mo.) along with the peptide. The cells were washed 3× with PBS and fixed with 4% paraformaldehyde at RT for 10 min. After fixation, the cells were washed again with PBS and mounted with ProLong Gold reagent (Invitrogen, Carlsbad, Calif.) and fluorescence images were collected with confocal microscopy (Leica TCS SP5 Microsystems, Bannockburn, Ill.).

The subject of experiment [2] is Hs738.St/Int. cells. Kind of experiment: Flow cytometry of FITC-labeled peptides. The class given is cell-based, human. As to conditions: 10 μM, 60 min, 4° C. The method, then: (§3) Preferential binding of FITC-Peptide 2 to target cells was validated using flow cytometry. HT29 and Hs738.St/Int. (˜2×10^5) cells were grown, detached, and blocked as described above. These cells were incubated with the FITC-Peptide 2 or -Control peptide 2 (10 μM) for 60 min at 4° C. with continuous agitation. The cells were then washed (3×) with cold PBST followed by immediate fixing for 10 min. with 4% paraformaldehyde. The cells were washed again (1×) with PBS and resuspended in 1 mL of PBS. Flow cytometry was performed using FACSDiVa (BD® LSRII, BD Biosciences, San Jose, Calif.) and analyzed using Flowjo analysis program (Tree Star Inc., Ashland, Oreg.).
(§4) Preferential binding of the candidate peptide labeled with 5-FITC to the target and control cells was also validated using flow cytometry. HT29 and Hs738.St/Int. (˜2×10^5) cells were grown, detached, and blocked, as described above. These cells were incubated with the 5-FITC labeled candidate or control peptide (10 μM) for 60 min at 4° C. with continuous agitation. The cells were then washed 3× with cold PBST followed by immediate fixation for 10 min with 4% paraformaldehyde. The cells were washed again with PBS and resuspended in 1 mL of PBS. Flow cytometry was performed using FACSDiVa (BD® LSRII, BD Biosciences, San Jose, Calif.) and analyzed using Flowjo analysis program (Tree Star Inc. Ashland, Oreg.).
Background: In flow cytometry, cells or beads pass a laser one at a time.

For experiment [3], the system named is HT29 cells. Kind of experiment: Flow cytometry of FITC-labeled peptides. As to conditions: 10 μM, 60 min, 4° C., FITC channel. The class given is cell-based, human. The method, then:
as §3, §4

Experiment [4] relates to HT29 cells. Kind of experiment: Fluorescence microscopy of FITC-labeled peptides. In kind it is cell-based, human. As to conditions: 10 μM; for internalization within HT29 cells: 37° C.; for binding to the surface of HT29 cells: 15 min, 4° C. How it is done:
as §1
In addition, the ability of the FITC-Peptide 2 peptide to internalize within the HT29 cells was tested. HT29 cells were incubated for 15 min. at either 4° C. or 37° C. in the presence of 10 μM FITC-Peptide 2.
as §2

In experiment [5] the test system is human EMR specimens (normal mucosa, polypoid and non-polypoid dysplasia). Put plainly: Stereomicroscopic validation on EMR specimens. As to conditions: for fluorescence intensity on stereomicroscopy: 10 μmol/L, 5 min, mean±SEM. An excerpt: Binding of the candidate or control peptide to the dysplasia on freshly resected human specimens via endoscopic mucosal resection (EMR) was validated on fluorescence stereomicroscopy. Patients with previously diagnosed polypoid and non-polypoid dysplasia who were referred for EMR were recruited. Institutional review board approval was obtained from the VA Palo Alto Health Care System, and informed consent was acquired. After resection, the specimens were rinsed in PBS 3× to remove debris and mucous. An autofluorescence image was acquired before incubating with the peptide. Then, specimens were incubated with either the FITC-labeled candidate or control peptide at a concentration of 10 μmol/L for 5 min. The unbound peptide was rinsed off with PBS 3×. The mucosal surface of the specimen was oriented face up, and a dab of ink was applied to the upper border as a landmark to register the white light and fluorescence images with histology. A white light image was collected from the specimen with and without an overlying transparent grid that contains squares with dimensions of 1×1 mm^2. Fluorescence images were collected at 500 milliseconds per frame (with the overlying grid removed) using a stereomicroscope (Olympus SZX-16 equipped with Rolera camera; Olympus Corp, Tokyo, Japan) using 477 to 500 nm excitation and 500 to 630 nm emission. A correction to the fluorescence images was performed because the intensity at the center of the image is greater than that in the periphery due to differences in distance. A fluorescence image was collected from a solution of 10 μM FITC in a plate to provide a uniform target for calibration, allowing for quantitative analysis over the entire field of view. After the fluorescence intensities were corrected, lines along the length of the specimen spaced by 2-mm intervals in each image were identified using the grid from the white light image. The mean intensity from each 1×1 mm^2 interval along this length of tissue was calculated using Matlab and compared with histology. Histopathologic interpretation was performed by a gastrointestinal pathologist (HA) who classified the specimens stained with H&E as normal colonic mucosa, dysplasia, or adenocarcinoma. The histopathologic evaluation of the EMR specimens was conducted at VA Palo Alto Health Care System (AM) and classified as either dysplasia or normal mucosa.

This is an account of results in patent publication US8901276B2, “Peptide reagents and methods for detection of colon dysplasia” (The Regents of the University of Michigan, priority 2010, dated 2014).

“Also recorded” adds a separate entry of the source.

For “KCCFPAQ-FITC [FITC-Peptide 2, KCCFPAQ with FITC at the C-terminus on the side chain of lysine residue via GGGSK linker]”, the “binding to Hs738.St/Int. cells on microscopy” value with Hs738.St/Int. cells [1] is reported as “not the surface of the Hs738.St/Int cells”; in the experiment with Hs738.St/Int. cells [1] (listed as KCCFPAQ peptide), “No binding”. The “binding to Hs738.St/Int. cells on flow cytometry” value in the experiment on Hs738.St/Int. cells [2] was “bound minimally”. Also, the “total HT29 cell population bound” value is reported as “About 97%” in the experiment on HT29 cells [3] and 97% in the experiment with HT29 cells [3] (listed as KCCFPAQ peptide). Besides, the “internalization within HT29 cells” value is on record as “diffuse staining throughout the cells” in the experiment with HT29 cells [4] and “diffuse peptide staining throughout the cells” in the experiment on HT29 cells [4] (listed as KCCFPAQ peptide). For the same substance, the “binding to the surface of HT29 cells” value is listed as “binds to the surface of the HT29; also recorded: confined to the cell surface” in the experiment on HT29 cells [4] and “binds to the surface of the HT29 cells” in the experiment on HT29 cells [4] (listed as KCCFPAQ peptide). Moreover, the “T/B flat adenoma to adjacent normal mucosa” value in experiment [5] is around 2.0 fold. The “T/B polypoid adenoma to adjacent normal mucosa” value in experiment [5] was 1.8. For the same substance, the “fluorescence intensity on stereomicroscopy” value in experiment [5] (non-polypoid dysplasia) is reported as 85.1±19.2 AU; in experiment [5] (normal mucosa), 43.5±10.7 AU; in experiment [5] (polypoid dysplasia) it was 78.6±12.8 AU.
